The values that follow come from patent publication US20250163074A1, “CDK Inhibitors And Their Use As Pharmaceuticals” (Prelude Therapeutics Incorporated, priority 2020, published 2025).

For test [1], the target named is CDK4/Cyclin D1 (Homo sapiens (Human), UniProt P11802). The test is described as follows: CDK4/CyclinD1 enzymatic activity assay (TR-FRET). The class given is biochemical. The following applies: CDK4/CyclinD1 1 nM, ATP 2 mM, read-out: CDK4_D1 IC50. As for the experimental part: CDK4/CyclinD1 Enzymatic Activity Assay
Chain of CDK4/Cyclin D1 (P11802 whole entry): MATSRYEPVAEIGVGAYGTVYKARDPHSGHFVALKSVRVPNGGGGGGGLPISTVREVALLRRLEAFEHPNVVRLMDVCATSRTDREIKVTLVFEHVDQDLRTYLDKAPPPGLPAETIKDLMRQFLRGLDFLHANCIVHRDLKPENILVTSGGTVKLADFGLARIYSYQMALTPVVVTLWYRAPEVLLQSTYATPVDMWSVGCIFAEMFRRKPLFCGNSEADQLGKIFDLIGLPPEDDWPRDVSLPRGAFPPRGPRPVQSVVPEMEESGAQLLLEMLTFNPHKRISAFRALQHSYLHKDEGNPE
Chain of CDK4/Cyclin D1 (P24385 whole entry partner): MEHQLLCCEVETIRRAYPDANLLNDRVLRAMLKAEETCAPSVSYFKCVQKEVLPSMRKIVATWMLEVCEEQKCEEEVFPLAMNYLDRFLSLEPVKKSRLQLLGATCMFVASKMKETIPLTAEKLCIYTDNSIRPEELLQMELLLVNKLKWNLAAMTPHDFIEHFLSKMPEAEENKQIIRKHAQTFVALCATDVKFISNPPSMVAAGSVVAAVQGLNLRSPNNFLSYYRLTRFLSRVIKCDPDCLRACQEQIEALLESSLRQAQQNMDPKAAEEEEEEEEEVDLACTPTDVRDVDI
The inhibitory activity of compounds was evaluated in vitro using TR-FRET assay with white 384-well low volume microplate (Greiner Bio-One). CDK4/Cyclin D1 catalyzed phosphorylation of peptide in the presence and absence of compounds was measured. IC50 determination. Recombinant protein complex CDK4/Cyclin D1, expressed from insect cell, was purchased from ProQinase. Testing compounds were dissolved in DMSO at 0.1 mM and tested in 9-dose IC50 mode. The reaction mixture was prepared by mixing CDK4/CyclinD1 (1 nM final), ULight-4E-BP1 (100 nM final, Perkinelmer, TRF0128-D), and ATP (2 mM final) in assay buffer (20 mM of HEPES pH 7.4, 1 mM of EGTA, 0.05% BSA, 0.005% Tween 20, and 1 mM TCEP). The compound of interest in DMSO was added to each well in 3-fold serial dilution by dispenser (TECAN D300E). After 20 minutes preincubation at room temperature, MgCl2 (10 mM final) was added to initiate the reaction. Following a 60 minutes incubation at 37° C., the reaction was stopped by addition of 2 μL of quenching buffer consisting of Lance detection buffer (Perkinelmer CR97-100C), 2 nM LANCE Ultra Europium-anti-P-4E-BP1 (Perkinelmer, TRF0216-D), 10 mM EDTA, and incubate at room temperature for additional 60 minutes in dark. The reaction signal was measured by Envision multimode plate reader (PerkinElmer, 2102-0010). IC50 values were determined by fitting the data to the standard 4 parameters with Hill Slope using GraphPad Prism software.
In general terms: TR-FRET usually uses a lanthanide donor and a delayed reading to cut background.

The test system of test [2] is MCF7 adenocarcinoma cell line. The test is described as follows: Cell proliferation studies in MCF7 cells (ATP-Lite). The class given is cell-based. To be noted: 10 days incubation, cell viability by ATP-Lite luminescence, read-out: PROLIFERATION_CTG_MCF7 IC50. As for the experimental part: Cell Proliferation Studies in MCF7 Cells
Cell proliferation studies were conducted in MCF7 adenocarcinoma cell line. Cells were maintained in DMEM (Corning, Catalog #: 10-013-CV) supplemented with 10% v/v FBS (Gibco, Catalog #: 26140-079), 1% v/v Penicillin Streptomycin (Gibco, Catalog #15140-122) Cells were seeded in 384-well plates at a density of 100 or 200 cells/well. Compounds dissolved in DMSO were plated in quadruplicate using a digital dispenser (D300E, Tecan) and tested on a 9-point 3-fold serial dilution. Cells were incubated for 10 days in a 37° C. active humidified incubator at 5% CO2. A media exchange and second compound addition were performed on day 5. Cell viability was measured using the ATP-Lite 1-Step Luminescence reagent (Perkin Elmer, Catalog #: 6016731) as per manufacturer's instructions. Luminescence signal was measured with a multimode plate reader (Envision 2105, Perkin Elmer). Raw data files were imported to Dotmatics Screening Ultra for IC50 analysis. Luminescence values were normalized to both background and DMSO controls to obtain a percentage of viable cells relative to DMSO vehicle control.

Structures are written as SMILES. Like-named read-outs stand apart in the source and are kept apart here. Some results are limits rather than exact numbers.

`CCN1C(=O)c2c(sc(-c3nc(Nc4ccc(C5CCN(C)CC5)cn4)ncc3Cl)c2C)C12CC2` [Example 11, 2′-(5-Chloro-2-((5-(1-methyl-piperidin-4-yl)pyridin-2-yl)amino)pyrimidin-4-yl)-5′-ethyl-3′-methylspiro[cyclopropane-1,6′-thieno[2,3-c]pyrrol]-4′(5′H)-one]: the IC50 is no more than 20 nM in test [1] and 20 to 200 nM in test [2] (Homo sapiens, 240 h). As for `CCN1C(=O)c2cc(-c3nc(Nc4ccc(N5C[C@H]6CN(C)C[C@H]6C5)cn4)ncc3C)sc2C12CC2` [Example 17], the IC50 in test [1] was no more than 20 nM; in test [2] it was 20 to 200 nM. As to `CCN1C(=O)c2cc(-c3nc(Nc4ccc(C5CCN(C)CC5)cn4)ncc3C)sc2C12CC2` [Example 19, 5′-Ethyl-2′-[5-methyl-2-[[5-(1-methylpiperidin-4-yl)pyridin-2-yl]amino]pyrimidin-4-yl]spiro[cyclopropane-1,6′-thieno[2,3-c]pyrrole]-4′-one], the IC50 in test [1] was no more than 20 nM; in test [2] (Homo sapiens, 240 h) it was 20 to 200 nM. In the case of `CCN1CCC(c2ccc(Nc3ncc(F)c(-c4cc5c(s4)C4(CC4)CN(C)C5=O)n3)nc2)C1` (stereo not shown) [Example 31, 2′-(2-((5-(1-Ethylpyrrolidin-3-yl)pyridin-2-yl)amino)-5-fluoropyrimidin-4-yl)-5′-methyl-5′,6′-dihydro-4′H-spiro[cyclo-propane-1,7′-thieno[3,2-c]pyridin]-4′-one], the IC50 in test [1] is no more than 20 nM; in test [2] (Homo sapiens, 240 h), 200 to 2000 nM.

On to `Cc1c(-c2nc(Nc3ccc(N4CC5CC(C4)N5C)cn3)ncc2F)sc2c1C(=O)N(C)CC21CC1` [Example 33, 2′-(5-Fluoro-2-((5-(6-methyl-3,6-diazabicyclo[3.1.1]heptan-3-yl)pyridin-2-yl)amino)pyrimidin-4-yl)-3′,5′-dimethyl-5′,6′-dihydro-4′H-spiro[cyclopropane-1,7′-thieno[3,2-c]pyridin]-4′-one], for which the IC50 in test [1] was no more than 20 nM; in test [2] (Homo sapiens, 240 h) it was 20 to 200 nM. In the case of `CCN1CCN(Cc2ccc(Nc3ncc(F)c(-c4sc5c(c4C)C(=O)N(C)CC54CC4)n3)nc2)CC1` [Example 38, 2′-(2-((5-((4-Ethylpiperazin-1-yl)methyl)pyridin-2-yl)amino)-5-fluoropyrimidin-4-yl)-3′,5′-dimethyl-5′,6′-dihydro-4′H-spiro[cyclopropane-1,7′-thieno[3,2-c]pyridin]-4′-one], the IC50 in test [1] is no more than 20 nM; in test [2] (Homo sapiens, 240 h) it was 200 to 2000 nM. For the molecule `CCN1CC2(C1)CN(c1ccc(Nc3ncc(C)c(-c4sc5c(c4C)C(=O)N(C)CC54CC4)n3)nc1)C2` [Example 42, 2-[2-[[5-(6-Ethyl-2,6-diazaspiro[3.3]heptan-2-yl)pyridin-2-yl]amino]-5-methylpyrimidin-4-yl]-3,5-dimethylspiro[6H-thieno[3,2-c]pyridine-7,1′-cyclopropane]-4-one], the IC50 in test [1] was no more than 20 nM; in test [2] (Homo sapiens, 240 h), 20 to 200 nM. With `CCN1CC2(C1)CN(c1ccc(Nc3ncc(Cl)c(-c4sc5c(c4C)C(=O)N(C)CC54CC4)n3)nc1)C2` [Example 44], the IC50 is no more than 20 nM in test [1] and 20 to 200 nM in test [2]. In the case of `CN1CC2(CCC2)c2sc(-c3nc(Nc4ccc(C5CCN(CC(F)F)CC5)cn4)ncc3F)cc2C1=O` [Example 49, 2′-(2-((5-(1-(2,2-Difluoroethyl)piperidin-4-yl)pyridin-2-yl)amino)-5-fluoropyrimidin-4-yl)-5′-methyl-5′,6′-dihydro-4′H-spiro[cyclobutane-1,7′-thieno[3,2-c]pyridin]-4′-one], the IC50 in test [1] is no more than 20 nM. Turning to `CCN1CCN(Cc2ccc(Nc3ncc(F)c(-c4sc5c(c4C)C(=O)N(C)CC54CCC4)n3)nc2)CC1` [Example 56, 2′-(2-((5-((4-Ethylpiperazin-1-yl)methyl)pyridin-2-yl)amino)-5-fluoropyrimidin-4-yl)-3′,5′-dimethyl-5′,6′-dihydro-4′H-spiro[cyclobutane-1,7′-thieno[3,2-c]pyridin]-4′-one], in test [1], the IC50 was no more than 20 nM. Turning to `CN1CCN(c2ccc(Nc3ncc(F)c(-c4cc5c(s4)C4(CCCC4)CN(C)C5=O)n3)nc2)C(C(F)(F)F)C1` (stereo not shown) [Example 65, 2-[5-Fluoro-2-[[5-[4-methyl-2-(trifluoromethyl)piperazin-1-yl]pyridin-2-yl]amino]pyrimidin-4-yl]-5-methylspiro[6H-thieno[3,2-c]pyridine-7,1′-cyclopentane]-4-one], in test [1], the IC50 is no more than 20 nM. Same read-out and setting: next, `CCN1CCN(Cc2ccc(Nc3ncc(F)c(-c4ccc5c(c4)C4(CCCC4)CN(C)C5=O)n3)nc2)CC1` [Example 68, 6′-(2-((5-((4-Ethylpiperazin-1-yl)methyl)pyridin-2-yl)amino)-5-fluoropyrimidin-4-yl)-2′-methyl-2′,3′-dihydro-1′H-spiro [cyclo-pentane-1,4′-isoquinolin]-1′-one]: no more than 20 nM; `CCN1CC2(C1)CN(c1ccc(Nc3ncc(F)c(-c4ccc5c(c4)C4(CCC4)CN(C)C5=O)n3)nc1)C2` [Example 69, 6′-(2-((5-(6-Ethyl-2,6-diazaspiro[3.3]heptan-2-yl)pyridin-2-yl)amino)-5-fluoropyrimidin-4-yl)-2′-methyl-2′,3′-dihydro-1′H-spiro[cyclobutane-1,4′-isoquinolin]-1′-one]: 20 to 200 nM; `C/C=C/CN1CCC(c2ccc(Nc3ncc(F)c(-c4sc5c(c4C)C(=O)N(C)C54CC4)n3)nc2)C1` (stereo not shown) [Example 72, (E)-2′-(2-((5-(1-(But-2-en-1-yl)pyrrolidin-3-yl)pyridin-2-yl)amino)-5-fluoropyrimidin-4-yl)-3′,5′-dimethylspiro[cyclopropane-1,6′-thieno[2,3-c]pyrrol]-4′(5′H)-one]: no more than 20 nM. Same read-out and setting: next, `CCN1CC2(C1)CN(c1ccc(Nc3ncc(F)c(-c4cc5c(s4)C4(CCCCC4)CN(CC)C5=O)n3)nc1)C2` [Example 75, 5′-Ethyl-2′-(2-((5-(6-ethyl-2,6-diazaspiro[3.3]heptan-2-yl)pyridin-2-yl)amino)-5-fluoropyrimidin-4-yl)-5′,6′-dihydro-4′H-spiro[cyclohexane-1,7′-thieno[3,2-c]pyridin]-4′-one]: 20 to 200 nM; `CCN1CC2(C1)CN(c1ccc(Nc3ncc(F)c(-c4cc5c(s4)C4(CN(C)C5=O)CC5(CC5)C4)n3)nc1)C2` [Example 76, 2″-(2-((5-(6-Ethyl-2,6-diazaspiro[3.3]heptan-2-yl)pyridin-2-yl)amino)-5-fluoropyrimidin-4-yl)-5″-methyl-5″,6″-dihydro-4″H-dispiro[cyclopropane-1,1′-cyclobutane-3′,7″-thieno[3,2-c]pyridin]-4″-one]: no more than 20 nM; `CN1CCC(c2ccc(Nc3ncc(F)c(-c4ccc5c(c4)C4(CCCC4)N(C)C5=O)n3)nc2)CC1` [Example 79, 6′-(5-Fluoro-2-((5-(1-methylpiperidin-4-yl)pyridin-2-yl)amino)pyrimidin-4-yl)-2′-methylspiro[cyclopentane-1,1′-isoindolin]-3′-one]: 20 to 200 nM. Still for that read-out and setting: the value for `CN1CCC(c2ccc(Nc3ncc(F)c(-c4cc5c(s4)C4(CN(C)C5=O)CC(F)(F)C4)n3)nc2)CC1` [Example 84, 3,3-Difluoro-2′-(5-fluoro-2-((5-(1-methylpiperidin-4-yl)pyridin-2-yl)amino)pyrimidin-4-yl)-5′-methyl-5′,6′-dihydro-4′H-spiro[cyclobutane-1,7′-thieno[3,2-c]pyridin]-4′-one] was 20 to 200 nM; that for `CCN1CC2(C1)CN(c1ccc(Nc3ncc(F)c(-c4cc5c(s4)C4(CN(C)C5=O)CC(F)(F)C4)n3)nc1)C2` [Example 85, 2′-(2-((5-(6-Ethyl-2,6-diazaspiro[3.3]heptan-2-yl)pyridin-2-yl)amino)-5-fluoropyrimidin-4-yl)-3,3-difluoro-5′-methyl-5′,6′-dihydro-4′H-spiro[cyclobutane-1,7′-thieno[3,2-c]pyridin]-4′-one] was 20 to 200 nM. Consider `CN1CCC(c2ccc(Nc3ncc(F)c(-c4cc5c(s4)C4(CCCC4)CN(C)C5=O)n3)nn2)CC1` [Example 87, 2-[5-Fluoro-2-[[6-(1-methylpiperidin-4-yl)pyridazin-3-yl]amino]pyrimidin-4-yl]-5-methylspiro[6H-thieno[3,2-c]pyridine-7,1′-cyclopentane]-4-one], for which the IC50 in test [1] was 20 to 200 nM.
